Measurements reported in patent publication US6362394B1, “Juvenile hormone or one of its agonists as a chemical ligand to control gene expression in plants by receptor mediated transactivation” (Syngenta Participations AG, priority 1995, dated 2002).

Experiments:
[1] = molecular target: T1, receptor polypeptides GAL4-EcR^330-825-C1 and USP-VP16 (Drosophila melanogaster, UniProt P20153); assay: Reversal by juvenile hormone agonists of GAL4-EcR-C1 + USP-VP16 activation of a luciferase target cassette in transformed maize cells; format: cell-based; settings: 10 μM ligand, approximately 48 hours
T1 construct: expressed in transfected cells; host or cells: maize suspension cells, microprojectile bombardment
T1 sequence (P06492 411-490, one chain of several): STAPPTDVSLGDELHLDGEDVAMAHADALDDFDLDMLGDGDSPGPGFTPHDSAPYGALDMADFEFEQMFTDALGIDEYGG
Excerpt: (§1) Control of target polypeptide expression by various receptor polypeptides, including the chimeric receptor polypeptides of the present invention, can be shown by simultaneously transforming plant cells with the necessary gene constructions using high velocity microprojectile bombardment, followed by biochemical assay for the presence of the target polypeptide. The necessary gene constructions comprise a USP receptor expression cassette which encodes a USP receptor polypeptide (FIG. 1). Optionally, the USP receptor expression cassette may be transformed along with a secondary receptor expression cassette which encodes a receptor polypeptide distinct from USP (FIGS. 2 and 3). In addition, a target expression cassette which encodes a target polypeptide is also necessary.
(§2) The expression cassettes were simultaneously delivered to maize suspension cells cultured in liquid N6 medium (Chu et al. Scientia Sinica XVIII:659-668, 1975) by high velocity microprojectile bombardment using standard techniques of DNA precipation onto microprojectiles and high velocity bombardment driven by compressed helium (PDS1000/He, BioRad, Hercules, Calif.). Transfected cells were incubated in liquid suspension in the presence of the appropriate chemical ligand for approximately 48 hours in N6 media. After incubation, the transformed cells were harvested then homogenized at 0° C. Debris in the extracts was removed by centrifugation at 10,000 g at 4° C. for 5 minutes.
(§3) Target polypeptide expression was detected by assaying the extract for the presence of the product encoded by the target expression cassette. One commonly used coding sequence for the target polypeptide when testing control of expression by the receptor polypeptides in the presence of a chemical ligand is firefly luciferase. The activity of firefly luciferase is determined by quantitating the chemiluminescence produced by luciferase catalyzed phosphorylation of luciferin using ATP as substrate (Promega Luciferase Kit, cat. no. E1500), using an Analytical Luminescence Model 2001 luminometer. […]

[2] = molecular target: T2, receptor polypeptides GAL4-EcR^330-825-C1 and USP-VP16 (Drosophila melanogaster, UniProt P20153+P34021); assay: Tebufenozide-induced activation by GAL4-EcR-C1 + USP-VP16 of a luciferase target cassette in maize cells, and its block by methoprene; format: cell-based; settings: approximately 48 hours
T2 construct: expressed in transfected cells; host or cells: maize suspension cells, microprojectile bombardment
Excerpt: as §1, §2, §3

RXRα = molecular target: T3, RXRα (Homo sapiens, UniProt P19793); settings: insect and mammalian cells; cited from earlier work
T3 construct: host or cells: insect and mammalian cells (as reported by Harmon et al.)
T3 sequence (P19793 1-462): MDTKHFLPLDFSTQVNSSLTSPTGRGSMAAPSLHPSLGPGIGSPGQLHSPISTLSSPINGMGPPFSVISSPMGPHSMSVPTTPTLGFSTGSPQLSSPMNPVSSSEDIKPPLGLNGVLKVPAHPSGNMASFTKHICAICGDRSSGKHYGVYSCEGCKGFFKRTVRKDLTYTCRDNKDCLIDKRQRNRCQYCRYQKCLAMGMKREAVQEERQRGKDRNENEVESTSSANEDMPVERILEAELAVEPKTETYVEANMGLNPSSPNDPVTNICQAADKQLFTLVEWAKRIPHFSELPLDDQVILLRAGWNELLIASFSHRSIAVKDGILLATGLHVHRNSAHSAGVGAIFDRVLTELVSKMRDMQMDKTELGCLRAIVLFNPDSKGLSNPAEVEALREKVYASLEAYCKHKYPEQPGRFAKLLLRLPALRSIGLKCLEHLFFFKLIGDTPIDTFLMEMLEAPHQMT

[3] = molecular target: T4, receptor polypeptide VP16-USP (Drosophila melanogaster, UniProt P20153); assay: VP16-USP activation of a direct repeat luciferase target cassette in transformed maize cells; format: cell-based; parameters: expressed in transfected cells; settings: 35S/VP16-USP, target (DR3)3-Bz1TATA/Luc, 10 μM ligand, 48 hours, no ligand 29,967
T4 sequence (P06492 413-490, one chain of several): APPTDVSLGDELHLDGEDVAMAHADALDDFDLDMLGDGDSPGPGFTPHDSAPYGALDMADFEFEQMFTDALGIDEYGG
Excerpt: as §1, with “necessary. […]” for “necessary.”
as §3, with “One commonly used coding sequence for the target polypeptide when testing control of expression by the receptor polypeptides in the presence of a chemical ligand is firefly luciferase.” left out

[4] = molecular target: T4, receptor polypeptide VP16-USP; assay: Chemical induction of luciferase in isolated leaves of transgenic Arabidopsis expressing VP16-USP with a DR-Luciferase reporter; format: cell-based; parameters: expressed in transfected cells; host or cells: transgenic Arabidopsis thaliana (Columbia), isolated leaves; Agrobacterium T-DNA construct; settings: approximately 24 hours; for Fold increase in luciferase activity: 10 μM; for Luciferase Activity: 35S/VP16-USP, 10 μM ligand in 0.1% ethanol, light units per 10 seconds per 100 μg extract protein, control 638
Procedure: Arabidopsis thaliana (Columbia) was transformed with an Agrobacterium vector harboring a CaMV 35S promoter and a DR-Luciferase reporter (as described in Example 13 above) by the following vacuum-infiltration procedure. Electrocompetent GV3101 Agrobacterium cells were prepared by incubating GV3101 Agrobacterium in 2×YT media at 28° C. with aeration for 24-30 hours to an OD600 of 0.5-0.7 units. Cells were chilled on ice for 10-30 minutes, and centrifuged at 5,000 RPM for 5 minutes at 4° C. The supernatant was discarded, and the cell pellet resuspended in 1 volume of ice-cold 10% glycerol. Cells were again centrifuged at 5,000 RPM for 5 minutes at 4° C. The supernatant was discarded, and the cell pellet resuspended in 0.05 volumes of ice-cold 10% glycerol. Cells were again centrifuged at 5,000 RPM for 5 minutes at 4° C. The supernatant was discarded, and the cell pellet resuspended in 0.02 volume of ice-cold 10% glycerol. Cells were again centrifuged at 5,000 RPM for 5 minutes at 4° C. The supernatant was discarded, and the cell pellet resuspended 0.02 volume of ice-cold 10% glycerol. Cells were again centrifuged at 5,000 RPM for 5 minutes at 4° C. The supernatant was discarded, and the cell pellet resuspended in 0.01 volume of ice-cold 10% glycerol. Cells were aliquoted in […] amounts per 1.5 ml microfuge tubes, quick-frozen in liquid N2, and stored at −80° C. Electrocompetent cells were used before 6 weeks storage at −80° C. Frozen electrocompetent cells were thawed on ice and 40 ml transfered to a pre-chilled 1.5 ml microfuge tube. 1 ml of the appropriate Agrobacterium plasmid DNA (2-10 ng) was added to the thawed cells and mixed on ice. The cell/plasmid mixture was transfered to a prechilled 0.2 cm Bio-Rad electroporation cuvette, and electroporated at 2.0 KVolts, 600 Ohms, 25 μFarad, with a 6 msec time constant. 1 †ml of 2×YT media was added to the electroporation cuvette, the cell/plasmid solution was mixed with a pipet tip, and the contents transfered to a fresh 1.5 ml microfuge tube. Cells were then incubated at […] for 1 hour on a shaker at 200 RPM. The cells were centrifuged down for 2 minutes at a setting of 6 in an Eppendorph adjustable-speed microfuge, the supernatant decanted, and the cell pellet resuspended in the remaining liquid. Resuspended cells were spread on an LB media plate with the appropriate antibiotic. Plates were incubated at 28-30° C. for […]. A 50 ml LB culture was innoculated with a single transformed colony in a 250 ml flask with Rifampicin at 100 μg/ml and Gentomycin at 25 μg/ml and Kanamycin at 100 μg/ml. The culture was incubated for 24-36 hours at 28° C. at 250 RPM and 10 ml of the culture was used to innoculate 500 ml LB+antibiotics in a 2-liter flask. This culture was incubated overnight at 28° C. with shaking at 250 RPM. […]

USP = molecular target: T5, USP (Drosophila melanogaster, UniProt P20153); settings: Drosophila cell-culture assays; conditions in which RXR is responsive; cited from earlier work
T5 construct: host or cells: Drosophila cell culture (as reported by Oro et al. and Harmon et al.)
T5 sequence (P20153 1-508): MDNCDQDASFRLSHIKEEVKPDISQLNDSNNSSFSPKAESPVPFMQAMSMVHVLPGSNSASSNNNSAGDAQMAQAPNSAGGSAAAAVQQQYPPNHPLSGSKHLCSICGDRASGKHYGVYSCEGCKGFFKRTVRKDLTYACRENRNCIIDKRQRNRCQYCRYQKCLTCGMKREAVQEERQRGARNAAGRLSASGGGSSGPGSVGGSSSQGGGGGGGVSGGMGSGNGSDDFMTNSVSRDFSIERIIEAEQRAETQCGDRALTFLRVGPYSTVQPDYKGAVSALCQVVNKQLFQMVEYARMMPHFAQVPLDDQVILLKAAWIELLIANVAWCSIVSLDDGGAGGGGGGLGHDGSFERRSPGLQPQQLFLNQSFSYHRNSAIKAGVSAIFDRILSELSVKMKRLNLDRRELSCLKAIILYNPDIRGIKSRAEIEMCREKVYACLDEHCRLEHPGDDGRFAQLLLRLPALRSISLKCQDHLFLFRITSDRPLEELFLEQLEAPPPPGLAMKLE

[5] = molecular target: USP-VP16 chimeric receptor polypeptide (Drosophila; herpes simplex virus) (UniProt P20153); assay: cell-based or functional assay
[6] = Experiment #1, 35S/GAL4-EcR^330-825-C1 + 35S/USP-VP16, target (GAL4b.s.)10-Bz1TATA/Luc, no ligand 277,862

COC(C)(C)CCC[C@H](C)C/C=C/C(C)=C/C(=O)OC(C)C (racemic) [Methoprene]
Luciferase Activity [1, 6]: 14,786 light units | Luciferase Activity ([1]; Experiment #2, 35S/GAL4-EcR^330-825-C1 + 35S/USP-VP16, target (GAL4b.s.)10-Bz1TATA/Luc, no ligand 178,092): 5,730 light units | Effect on tebufenozide-induced activation of luciferase gene expression ([2]; 10 μM methoprene with 10 μM tebufenozide): completely blocked | RXRα-mediated transcriptional activation of a recombinant reporter gene (RXRα): transcriptionally activate | Luciferase Activity [3]: 485,458 light units | Fold increase in luciferase activity [4]: 25 fold | Luciferase Activity [4]: 15,790 light units

CCOC(=O)NCCOc1ccc(Oc2ccccc2)cc1 [Fenoxycarb, ethyl [2-(4-phenoxyphenoxy)ethyl]carbamate]
Luciferase Activity [1, 6]: 77,418 light units | Fold increase in luciferase activity [4]: 6.2 fold | Luciferase Activity [4]: 3,991 light units

CCc1ccc(C(=O)NN(C(=O)c2cc(C)cc(C)c2)C(C)(C)C)cc1 [Tebufenozide]
Tebufenozide-induced activation of luciferase gene expression, fold increase when used alone ([2]; 10 μM): approximately 6 fold | Luciferase Activity ([2]; 35S/GAL4-EcR^330-825-C1 + 35S/USP-VP16, target (GAL4b.s.)10-Bz1TATA/Luc, 10 μM each ligand, no ligand 178,092): 908,912 light units

COC(C)(C)CCCC(C)C/C=C/C(C)=C/C(=O)O (centres unmarked) [methoprene acid]
RXRα-mediated transcriptional activation of a recombinant reporter gene (RXRα): transcriptionally activate | Activation / response of USP (USP): does not respond

GAL4-EcR^330-825-C1 chimeric receptor polypeptide (from UniProt P04386 1-147; P34021 330-825; P10290 219-273)
Luciferase Activity (light units) of the (GAL4b.s.)10-Bz1TATA/Luc reporter in maize cells, Experiment #1, no chemical ligand [5]: 278000 light units | Luciferase Activity (light units) of the (GAL4b.s.)10-Bz1TATA/Luc reporter in maize cells, Experiment #1, with 10 uM Fenoxycarb [5]: 77400 light units | Luciferase Activity (light units) of the (GAL4b.s.)10-Bz1TATA/Luc reporter in maize cells, Experiment #1, with 10 uM Methoprene [5]: 14800 light units | Luciferase Activity (light units) of the (GAL4b.s.)10-Bz1TATA/Luc reporter in maize cells, Experiment #2, no chemical ligand [5]: 178000 light units | Luciferase Activity (light units) of the (GAL4b.s.)10-Bz1TATA/Luc reporter in maize cells, Experiment #2, with 10 uM Methoprene [5]: 5730 light units | Luciferase Activity (light units) of the (GAL4b.s.)10-Bz1TATA/Luc reporter in maize cells, with 10 uM Tebufenozide [5]: 909000 light units | Luciferase Activity (light units) of the (GAL4b.s.)10-Bz1TATA/Luc reporter in maize cells, with 10 uM Tebufenozide + 10 uM Methoprene [5]: 160000 light units | level of tebufenozide-induced activation of luciferase gene expression (fold increase, tebufenozide alone) [5]: 6 fold

Juvenile hormone
RXRα-mediated transcriptional activation of a recombinant reporter gene (RXRα): does not induce
